One experiment has as its target T1, COX-2 (Ovis aries, UniProt P79208).
T1 construct: purified enzyme from ewe placenta; from tissue; host or cells: ewe placenta
T1 sequence (P79208 17-603): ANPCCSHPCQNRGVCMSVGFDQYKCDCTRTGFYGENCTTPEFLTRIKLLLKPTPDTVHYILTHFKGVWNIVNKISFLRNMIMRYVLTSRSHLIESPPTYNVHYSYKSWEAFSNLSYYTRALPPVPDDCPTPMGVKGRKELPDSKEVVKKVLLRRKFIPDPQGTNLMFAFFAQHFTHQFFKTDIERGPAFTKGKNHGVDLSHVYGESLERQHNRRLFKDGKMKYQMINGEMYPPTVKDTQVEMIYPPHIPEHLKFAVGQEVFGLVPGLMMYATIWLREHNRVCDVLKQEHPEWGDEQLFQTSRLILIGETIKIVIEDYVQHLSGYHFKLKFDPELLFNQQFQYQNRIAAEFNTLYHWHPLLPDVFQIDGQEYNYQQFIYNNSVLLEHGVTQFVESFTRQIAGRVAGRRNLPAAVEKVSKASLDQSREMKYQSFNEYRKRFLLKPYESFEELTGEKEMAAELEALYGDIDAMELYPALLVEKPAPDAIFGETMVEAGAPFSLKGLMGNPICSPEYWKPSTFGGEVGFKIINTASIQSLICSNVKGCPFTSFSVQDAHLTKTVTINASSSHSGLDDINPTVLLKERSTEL
Put plainly: Inhibition of the COX-2 enzymatic activity (PGE2 determined by EIA). The conditions noted are these: arachidonic acid 4 μM, mean±standard deviations of 4 determinations; for inhibition at 10 µM: 10^-5 M; for inhibition at 0.1 µM: 10^-7 M. The format is biochemical, ewe. As for the experimental part: (§1) Inhibition of the COX-1 and COX-2 enzymatic activities The molecule studied is preincubated for 10 minutes at 25° C. with 2 U of COX-1 (purified enzyme from ram seminal vesicles) or 1 U of COX-2 (purified enzyme from ewe placenta). Arachidonic acid (6 μM for COX-1, 4 μM for COX-2) is added to the reaction medium and incubation is carried out for 5 minutes at 25° C. When incubation has ended, the enzymatic reaction is stopped by the addition of 1N HCl and the PGE2 produced is determined by EIA. The results are expressed as the percentage inhibition of the COX-1 and COX-2 enzymatic activities and correspond to mean±standard deviations of the average of 4 determinations.

For a further experiment, the system named is COX-1. Put plainly: Inhibition of the COX-1 enzymatic activity (PGE2 determined by EIA). It is filed as biochemical, ram. The conditions noted are these: 10^-5 M; arachidonic acid 6 μM; mean±standard deviations of 4 determinations. As for the experimental part:
as §1

In a further experiment the test system is carrageenin edema. In words: carrageenin edema test (anti-inflammatory activity). It is filed as in vivo. The conditions noted are these: rat, oral, 100 mg/kg, 3 hours, n=6 animals per dose. As for the experimental part: (§2) The anti-inflammatory activity of the compounds of the Examples was evaluated by the carrageenin edema method and the analgesic activity was evaluated by the kaolin arthritis method.
Anti-inflammatory activity:
The anti-inflammatory activity is evaluated in the rat by the carrageenin edema test. The product is administered orally at a rate of 2.5 ml/100 g (n=6 animals per dose) 2 h 30 rain after oral hyperhydration (2.5 ml/100 g). One hour after administration of the product, the edema is induced by the plantar subcutaneous injection of 2% aqueous carrageenin solution. The percentage inhibition of the volume of the edema is calculated after 3 hours by measurement of the volume of the paw with a mercury plethysmograph.
(Carrageenan injected into the paw causes an acute inflammation.)

A further experiment relates to kaolin arthritis. In words: kaolin arthritis test (analgesic activity). The conditions noted are these: rat, oral, 100 mg/kg, 5 h 30 after administration, n=10 animals per dose. The format is in vivo. As for the experimental part: as §2
The analgesic activity is evaluated in the rat by the kaolin arthritis test. Thirty minutes after the intra-articular administration of 10% aqueous kaolin suspension, the product is administered orally at a rate of 1 ml/100 g (n=10 animals per dose). The percentage inhibition of the animal's pain response (grading of the gait) is calculated 5 h 30 rain after administration of the product.

From US5686460A, “Carbocyclic diarylmethylene derivatives, processes for their preparation and their uses in therapeutics” (Laboratoires UPSA, priority 1996, dated 1997) come the findings set out here.

The inhibition is the drop in the measured response relative to a control, in per cent. Lower therefore signals a weak effect.

`CS(=O)(=O)c1ccc(C(=C2CCCC2)c2ccc(F)cc2)cc1` [Example 3, 4-[(Cyclopentylidene)(4-fluorophenyl)methyl]methylsulfonylbenzene]: at COX-2, the inhibition at 10 µM came to 66 ± 4% and the inhibition at 0.1 µM is 21 ± 4%.
Regarding `CS(=O)(=O)c1ccc(C(=C2CCCC2)c2ccc(Cl)nc2)cc1` [Example 6, 2-Chloro-5-[(cyclopentylidene)(4-methylsulfonylphenyl)methyl]-pyridine], in the experiment on COX-1, the “% inhibition of the COX-1 activity” value is 0 ± 0%. Moreover, the “Anti-inflammatory activity % inhibition (of the volume of the edema)” value in the experiment on carrageenin edema was 45.8 ± 9.8%. Moreover, the “Analgesic activity % inhibition (of the animal's pain response, grading of the gait)” value in the experiment on kaolin arthritis was found to be 55.0 ± 15.7%. At COX-2, testing at 10 µM gave an inhibition of 65 ± 2% and the inhibition at 0.1 µM worked out at 18 ± 8%.
Regarding `CS(=O)(=O)c1ccc(C(=C2C=CC=C2)c2ccc(F)cc2)cc1` [Example 12, 4-[(Cyclopenta-2,4-dienylidene)(4-fluorophenyl)methyl]methyl-sulfonylbenzene], 10 µM produced 57 ± 3% inhibition against COX-2.
